# Tested on: HIF-1α, Collagen-I protein levels in fibroblast cells
# Assay: Western blot of HIF-1α and Collagen-I in fibroblast lysate
# Assay type: cell-based, human
# Description: Cells at a density of 50,000 cells/well in a 24-well plate were cultured for 2 days with variable ML228 concentrations. Cells were sonicated and lysed in a buffer containing 20 mM Tris-HCL pH=7.5 with a protease inhibitor (Abcam, Cambridge, UK) or a protease inhibitor from Merck (539134, Merck). Equal amounts (1 μg) of total protein were loaded and tested using Western blotting. Samples were divided for testing native samples and denaturative samples, which were dependent on each antibody recognition sites. Samples size was separated by a 6% sodium dodecyl sulfate (SDS) gel and transferred to nitrocellulose membranes that was further incubated overnight with primary antibodies of HIF-1α, and β-tubulin. As for detecting Collagen-I, samples were prepared in native conditions absent of SDS and β-mercaptoethanol. Thereafter, samples were separated by a native gel. Detection of Collagen-I was done in 6% native gel enabling observation of non-denatured structural collagen and preventing thermal degradation of the heat sensitive collagen. After extensive washing with TBST (Tris-buffered saline supplemented with 0.1% Tween-20), the membrane was further incubated with an HRP-conjugated secondary antibody for 1 hour. Chemiluminescence values were read after the addition of ECL substrate in a ChemiDoc imager (Biorad CA, USA).
compound,measurement,setting,value
"c1ccc(-c2ccc(CNc3nc(-c4ccccn4)nnc3-c3ccccc3)cc2)cc1 [ML228, N-([1,1′-Biphenyl]-4-ylmethyl)-6-phenyl-3-(2-pyridinyl)-1,2,4-triazin-5-amine]",HIF-1α protein level,"increasing concentrations of ML228, 48 hours",higher levels
same,Collagen-I protein level,"increasing concentrations of ML228, 48 hours, native gel",higher levels
same,HIF-1α protein level,"low doses of ML228, 48 hours",no HIF-1α protein is observed
